Source: patent US11602529B2, “Use of EZH2 inhibitors for treating cancer” (Epizyme, Inc., priority 2017, dated 2023)

Key:
[1] = system: genetically defined cancer cells; assay: Target methyl mark inhibition and killing of cancer cells in vitro; format: cell-based
soft tissue sarcoma = assay: Post-treatment biopsy of patients with soft tissue sarcoma (Example 2)
epithelioid sarcoma = assay: PD-L1, CD4 and CD8 staining of pre- and post-dose tissue biopsies of a subject with epithelioid sarcoma
Oral bioavailability = conditions: in vivo
[2] = system: refractory B-cell non-Hodgkin lymphoma and advanced solid tumors, including epithelioid sarcoma; conditions: cited from earlier work
[3] = In vivo efficacy in animal models

- oral bioavailability (Oral bioavailability): orally bioavailable
Structure (SMILES): CCN(c1cc(-c2ccc(CN3CCOCC3)cc2)cc(C(=O)NCc2c(C)cc(C)[nH]c2=O)c1C)C1CCOCC1 [Compound 44, tazemetostat]
- effect of target methyl mark inhibition on cancer cells [1]: killing of genetically defined cancer cells in vitro
- cells present in the tumor showing expression of PD-L1 (soft tissue sarcoma; biopsy after 20 weeks of treatment): more than 50%
- cells present in the tumor showing expression of PD-L1 (soft tissue sarcoma; second patient, biopsy after 25 weeks of treatment): more than 80%
- PD-L1 expression in tumor after treatment (epithelioid sarcoma; 800 mg twice daily orally, 25 weeks, post-dose vs pre-dose biopsy): upregulated PD-L1
- T-cell markers CD4 and CD8 in tumors with upregulated PD-L1 (epithelioid sarcoma; after treatment): positive for T-cell markers CD4 and CD8
- CD8+ immune cells, share of overall cellularity (epithelioid sarcoma; post-dose sample, 800 mg twice daily orally, 25 weeks (pre-dose about 5%)): about 30%
- CD4+ histiocytoid cells, cellularity (epithelioid sarcoma; post-dose sample, 800 mg twice daily orally, 25 weeks (pre-dose about 20%)): about 5%
- CD4+ cells, share of overall cellularity (epithelioid sarcoma; post-dose sample, 800 mg twice daily orally, 25 weeks (pre-dose also about 2%)): about 2%
- PD-L1 expression in tumor sample ([2]; after 4 weeks of treatment): modest expression of PD-L1 on immune cells
- histological assessment of on-treatment tumor specimen ([2]; not present at baseline nor at disease progression): strong immune infiltrate
- clinical activity in patients ([2]; phase I clinical study): antitumor activity
- in vivo efficacy following inhibition of target methyl mark [3]: sustained in vivo efficacy
